Reference: patent US20080027001A1, “NOGO RECEPTOR FUNCTIONAL MOTIFS, PEPTIDE MIMETICS, AND MUTATED FUNCTIONAL MOTIFS RELATED THERETO, AND METHODS OF USING THE SAME” (priority 2006, published 2008)
Where a chain is given by its changes, count along the chain named. “And” between values parts separate entries of the source, which are not always exact repeats. Equal values may be shown once.

How the values were obtained:
NgR1(310)-fc R279E = target: T1, NgR1(310)-fc R279E (Homo sapiens, UniProt Q9BZR6, R279E); experiment: Analytical ultracentrifugation, R279E mutant receptor; type: binding
T1 construct: made in house; host or cells: mammalian expression vector
T1 sequence (Q9BZR6 27-310 R279E): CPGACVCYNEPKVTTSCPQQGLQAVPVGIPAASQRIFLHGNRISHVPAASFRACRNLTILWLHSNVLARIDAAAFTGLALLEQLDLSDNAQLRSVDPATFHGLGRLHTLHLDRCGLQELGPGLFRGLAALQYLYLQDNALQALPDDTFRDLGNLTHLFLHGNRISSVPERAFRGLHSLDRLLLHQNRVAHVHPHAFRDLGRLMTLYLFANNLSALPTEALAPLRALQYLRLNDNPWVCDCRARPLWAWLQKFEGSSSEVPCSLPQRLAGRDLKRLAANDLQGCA
Source text: (§1) Human Nogo Receptor 1 (NgR1)(310)-fc point mutants (FRG-1 (R151E); FRG-2 (R279E); FRG-3 (R199E), and FRG-4 (R151E/R279E/R199E)) were constructed by Genewiz (North Brunswick, N.J.) using their site-directed mutagenesis technology. The template used to construct all the described mutants was wild type human NgR1(310)-fc (SEQ ID NO:59), which was generated by fusing a nucleotide sequence corresponding to the first 310 amino acid of Human Nogo Receptor 1 to a human Fc fragment in a mammalian expression vector (the sequence of wild type NgR1(310)-fc and the expression vector is set forth in SEQ ID NO:60 and a schematic of the expression vector is shown in FIG. 11). […]
(§2) Sedimentation velocity experiments were performed on a Beckman XLI/XLA analytical ultracentrifuge. […] Scans were recorded at 20° C. with a rotor speed of 35,000 rpm, and the signal was detected at 230 nm with a spacing of 0.006 in the continuous mode. Sedimentation profiles were analyzed by the program Sedfit (Schuck (2000) Biophys. J. 78:1606-19) to obtain the sedimentation coefficient distributions. The solvent density (1.006) and partial specific volume (0.72) were calculated using the program Sednterp (Laue et al. (1992) Analytical Ultracentrifugation in Biochemistry and Polymer Science (Harding, S. E., Towe, A. J. and Horton, J. C., eds.) pp. 90-125, Royal Society of Chemistry, Cambridge, U.K). […]

NgR1(310)-fc = target: T2, NgR1(310)-fc (Homo sapiens, UniProt Q9BZR6); experiment: Analytical ultracentrifugation (sedimentation velocity), wild type receptor; type: binding; settings: ganglioside 0 to 48 μM (FIG. 3A-C)
T2 construct: made in house; host or cells: mammalian expression vector (pSMED2)
Source text: as §1, §2

NgR1(310)-fc R151E = target: T3, NgR1(310)-fc R151E (Homo sapiens, UniProt Q9BZR6, R151E); experiment: Analytical ultracentrifugation, R151E mutant receptor; type: binding
T3 construct: made in house; host or cells: mammalian expression vector
T3 sequence (Q9BZR6 27-310 R151E): T1 sequence (Q9BZR6 27-310 R279E) with R125E, E253R
Source text: as §1, §2

[1] = tested on: anti-hNgR AF 1208 antibody; experiment: Analytical ultracentrifugation, specificity control; type: binding; settings: 22 mM GT1b (data not shown)
Procedure: Sedimentation velocity experiments were performed on a Beckman XLI/XLA analytical ultracentrifuge. Wild type NgR(310)-fc (0.21 μM to 0.38 μM final) was added to ganglioside at concentrations increasing from 0 to 48 μM. Mutant protein used in the sedimentation velocity experiments corresponded to the column fraction of greatest purity based on SDS gel analysis. […] The solution (400 μL) was loaded into two-channel (1.2 cm path length) carbon-Epon centerpieces in an An-50-Ti rotor. Scans were recorded at 20° C. with a rotor speed of 35,000 rpm, and the signal was detected at 230 nm with a spacing of 0.006 in the continuous mode. Sedimentation profiles were analyzed by the program Sedfit (Schuck (2000) Biophys. J. 78:1606-19) to obtain the sedimentation coefficient distributions. The solvent density (1.006) and partial specific volume (0.72) were calculated using the program Sednterp (Laue et al. (1992) Analytical Ultracentrifugation in Biochemistry and Polymer Science (Harding, S. E., Towe, A. J. and Horton, J. C., eds.) pp. 90-125, Royal Society of Chemistry, Cambridge, U.K).
The peptide competition studies, together with the direct binding assays, have implicated the FRG motif within loop 2 as being important for MAG function. […]

NgR1(310)-fc R199E = target: T4, NgR1(310)-fc R199E (Homo sapiens, UniProt Q9BZR6, R199E); experiment: Analytical ultracentrifugation, R199E mutant receptor; type: binding
T4 construct: made in house; host or cells: mammalian expression vector
Source text: as §1, §2

[2] = tested on: NgR1 expressed in CHO cells (MAG-AP binding); experiment: Neuraminidase treatment, MAG-AP binding to NgR1-expressing CHO cells; settings: MAG-AP 2.5-20 μg/ml; CHO cells treated with neuraminidase
Procedure: (§3) Chinese hamster ovary (CHO) parental cells and NgR1 stable cells were seeded at 30,000 cells per well in 96-well plates the night before the assay. Various concentrations of Vibrio cholera neuraminidase (Roche Applied Science, Indianapolis, Ind.) in growth medium (Dulbecco's modified Eagle medium containing 10% fetal bovine serum) were incubated with cells for an hour at 37° C. Medium was replaced with affinity-purified MAG-AP or Nogo66-AP in HBSS supplemented with 1% fetal bovine serum and […] of HEPES and incubated at room temperature for 90 min. Cells were then washed four times with supplemented HBSS. AltoPhos (0.6 mg/ml) (Promega, Madison Wis.) was added for indication of bound ligands. After a 30 minute incubation at RT, the plates were read at […] wavelength of 400 nm/505 nm with FLEXSTATION® 11384.
(§4) In neurons, soluble MAG binds to the NgR1 and NgR2 in a sialic acid-dependent manner (Venkatesh et al. (2005) supra). In the present study, the neuraminidase sensitivity of MAG binding to the NgR1 expressed in CHO cells was confirmed.

[3] = tested on: NgR1 expressed in CHO cells (Nogo66-AP binding); experiment: Neuraminidase treatment, Nogo66-AP binding to NgR1-expressing CHO cells; settings: highest concentration of neuraminidase; Nogo66-AP 10 μg/ml
Procedure: as §3, §4

[4] = tested on: cerebellar granule neurons; experiment: Neurite outgrowth on substrate-bound MAG; type: cell-based, rat; settings: tested at up to 200 μg/ml (FIG. 6F)
Procedure: Cerebellar neurons isolated from postnatal day ⅔ rat pups were cultured over monolayers of 3T3 cells (Doherty et al. (1991) Neuron 6(2):247-58) essentially as previously described (Williams et al. (1994) Neuron 13(3):583-94). Monolayers were established by seeding ˜80,000 cells into individual chambers of an eight-chamber tissue culture slide coated with poly-L-lysine and fibronectin. The cell lines, and monolayers, were maintained in Dulbecco's modified Eagle's medium supplemented with 10% fetal calf serum (FCS). […] Following careful fixation with 4% paraformaldehyde, the neurons were stained with a GAP-43 antibody, and the mean length of the longest neurite per cell was measured for ˜120-150 neurons, again as previously described (Williams et al. (1994) supra). […] The average of total neurite lengths from each neuron was measured automatically by the MetaXpress Neurite Outgrowth module (Molecular Devices, Sunnyvale, Calif.) from at least 200 neurons per well, in triplicate wells per experiment. […]

cerebellar neurons = experiment: Neurite outgrowth assay, inhibition by soluble MAG-Fc; type: cell-based, rat; settings: MAG-Fc 20 μg/ml, increasing peptide concentrations (FIG. 6E)
Procedure: Cerebellar neurons isolated from postnatal day ⅔ rat pups were cultured over monolayers of 3T3 cells (Doherty et al. (1991) Neuron 6(2):247-58) essentially as previously described (Williams et al. (1994) Neuron 13(3):583-94). Monolayers were established by seeding ˜80,000 cells into individual chambers of an eight-chamber tissue culture slide coated with poly-L-lysine and fibronectin. The cell lines, and monolayers, were maintained in Dulbecco's modified Eagle's medium supplemented with 10% fetal calf serum (FCS). Cocultures were established by removing the media from the monolayers and seeding ˜6000 dissociated cerebellar neurons into each well in SATO medium (modified from Doherty et al. (1990) Neuron 5(2):209-19; Dulbecco's modified Eagle's medium supplemented with 2% FBS, 33% bovine albumin, 0.62 μg/ml progesterone, 161 μg/ml putrescine, 4 μg/ml L-thyroxine, 0.387 μg/ml selenium, and 3.37 μg/ml tri-iodo-thyronine (components from Sigma-Aldrich, St. Louis, Mo.)). Monolayers were established for 24 hours prior to addition of the neurons and the cultures were maintained for ˜23-27 hr. Following careful fixation with 4% paraformaldehyde, the neurons were stained with a GAP-43 antibody, and the mean length of the longest neurite per cell was measured for ˜120-150 neurons, again as previously described (Williams et al. (1994) supra). For neurite outgrowth on substrate-bound MAG, 96-well plates were coated with a thin layer of nitrocellulose (Bio-Rad, Hercules, Calif.) before incubating with 1 μg/ml of MAG(d1-5) (a chimeric construct containing domains 1-5 of the extracellular portion of MAG) at 4° C. overnight. Wells were subsequently coated with 17 μg/ml of poly-D-lysine (Sigma, St. Louis, Mo.), followed by incubation in Dulbecco's modified Eagle's medium containing 10% FCS. Cerebellar granule neurons were dissociated and seeded at a density of 10^4 cells per well. Cells were cultured for 18-20 h before being fixed with 4% paraformaldehyde and stained with a neuronal-specific anti-III-tubulin antibody, Tuj 1 (Covance, Emeryville, Calif.). The average of total neurite lengths from each neuron was measured automatically by the MetaXpress Neurite Outgrowth module (Molecular Devices, Sunnyvale, Calif.) from at least 200 neurons per well, in triplicate wells per experiment. Results were repeated independently more than three times.
Synthetic peptides were all obtained from a commercial supplier (Multiple Peptide Systems, San Diego, Calif.). All peptides were purified to the highest grade by reverse-phase HPLC and obtained at the highest level of purity (>97%). With all peptides, there was no indication of higher molecular weight species. Where peptide sequences are underlined, this denotes a peptide that has been cyclized via a disulfide bond between the given cysteine residues. All peptides were acetylated (e.g., denoted with “N-Ac-”) and amide blocked (e.g., denoted with “—NH2”). Recombinant MAG-Fc chimera was obtained from R&D Systems (Minneapolis, Minn.) and used at final concentrations ranging from 5-25 μg/ml. The monoclonal antibody to GT1b (clone GMR5) was obtained from Seikagaku America (Falmouth, Mass.) and was used at a final concentration of 20 μg/ml. All reagents were diluted into the coculture media and, in general, added to the cultures just prior to the plating of the neurons. GT1b and GM1 were obtained as gifts from Dr. Gino Toffano (Libero, Italy) and University of Milan, and asialo-GM1 was obtained from Sigma (St. Louis, Mo.). The recombinant NgR1(310)-fc and MAG(d1-5) chimeras were expressed and purified in-house. Pharmacological reagents were obtained from Calbiochem (La Jolla, Calif.) and/or Sigma. For reagents used in cell-surface NgR binding assays, please see Examples 1.5 and 1.7. For reagents used in the cell surface p75NTR-NgR-AP binding assay, please see Example 1.13.
In contrast, a soluble MAG-Fc chimera inhibits neurite outgrowth in a manner that depends upon both ganglioside and NgR function. […]

T4 sequence (Q9BZR6 27-310 R199E): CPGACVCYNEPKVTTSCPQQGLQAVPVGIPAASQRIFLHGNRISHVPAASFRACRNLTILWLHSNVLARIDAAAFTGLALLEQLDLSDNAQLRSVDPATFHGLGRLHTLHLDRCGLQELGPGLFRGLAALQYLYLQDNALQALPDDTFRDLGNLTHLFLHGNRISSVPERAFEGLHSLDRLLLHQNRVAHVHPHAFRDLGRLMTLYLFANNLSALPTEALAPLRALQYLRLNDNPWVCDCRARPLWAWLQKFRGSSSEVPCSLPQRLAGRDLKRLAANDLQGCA
T2 sequence (Q9BZR6 with tags, fused parts or gaps limits assumed): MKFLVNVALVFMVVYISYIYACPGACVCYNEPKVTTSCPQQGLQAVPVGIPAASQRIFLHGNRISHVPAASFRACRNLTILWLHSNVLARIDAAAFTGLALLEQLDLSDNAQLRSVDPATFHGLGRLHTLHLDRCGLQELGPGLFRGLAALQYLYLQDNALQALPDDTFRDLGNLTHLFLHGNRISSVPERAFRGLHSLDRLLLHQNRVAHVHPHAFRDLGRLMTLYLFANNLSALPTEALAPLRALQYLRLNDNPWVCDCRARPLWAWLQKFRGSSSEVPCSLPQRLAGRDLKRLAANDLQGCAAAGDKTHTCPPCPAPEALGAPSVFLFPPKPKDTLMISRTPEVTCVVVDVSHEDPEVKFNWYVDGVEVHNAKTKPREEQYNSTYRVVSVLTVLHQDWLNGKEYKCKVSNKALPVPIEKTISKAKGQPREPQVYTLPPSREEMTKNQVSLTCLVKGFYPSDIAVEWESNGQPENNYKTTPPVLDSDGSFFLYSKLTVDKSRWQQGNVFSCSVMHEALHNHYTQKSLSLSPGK

GT1b
reduction of GT1b/NgR1 complex formation (NgR1(310)-fc R279E; R279 mutated): ~50%
GT1b binding relative to wild type NgR (NgR1(310)-fc R279E; mutation of arginine 279, GT1b 22 μM, ratio of ~6.7 S and ~11 S peaks): approximately 56%
interaction with NgR1(310)-fc (shift of sedimentation coefficient) (NgR1(310)-fc): additional peaks with higher sedimentation coefficients appear in a dose-dependent manner
reduction of GT1b/NgR1 complex formation (NgR1(310)-fc R151E; R151 mutated): ~50%
GT1b binding relative to wild type (NgR1(310)-fc R151E; mutation of arginine 151, GT1b 22 μM): 49%
effect on sedimentation of control antibody [1]: No effect
reduction of GT1b/NgR1 complex formation (NgR1(310)-fc R199E; R199 mutated): ~70%
GT1b binding relative to wild type / residual complex formation (NgR1(310)-fc R199E; mutation of arginine 199, GT1b 22 μM): ~30% and 33%

neuraminidase: Vibrio cholera neuraminidase (Roche Applied Science)
inhibition of specific binding of MAG-AP to NgR1-expressing cells [2]: 55%
effect on Nogo66-AP binding to NgR1 [3]: completely unaffected

N-Ac-c[sGrfkq]-NH2 (XGXXXX; not fully specified; cyclised or stapled) [hriNRL2]
effect on suppressed neurite outgrowth on MAG substrate [4]: no significant effect
efficacy in inhibiting the MAG response (cerebellar neurons): retain full efficacy
